# In patent US11992561B2 (priority 2020, dated 2024):
# Key:
# [1] = Clinical study: safety, side effects, taste, psychedelic effects (Bowdle, Bond and Lader questionnaires)
# [2] = Clinical study: plasma concentrations and pharmacokinetics after (S)-ketamine OTF; conditions: for Tmax: calculated using a PK model (NONMEM); for plasma level of the metabolite following administration of an OTF as compared to intravenous administration of 20 mg (S)-ketamine: FIGS. 3-8
compound,measurement,setting,value
"CNC1(c2ccccc2Cl)CCCCC1=O (racemic) [(S)-ketamine, (S)-(±)-2-(2-chlorophenyl)-2-(methylamino)cyclohexan-1-one]",Dizziness (number of adverse events),[1]; 20 mg (S)-ketamine IV,4
same,Drowsiness (number of adverse events),[1]; 20 mg (S)-ketamine IV,3
same,Dry eyes (number of adverse events),[1]; 20 mg (S)-ketamine IV,1
same,Headache (number of adverse events),[1]; 20 mg (S)-ketamine IV,3
same,High blood pressure (SBP > 180 mm Hg) (number of adverse events),[1]; 20 mg (S)-ketamine IV,2
same,Nausea (number of adverse events),[1]; 20 mg (S)-ketamine IV,2
same,Sweating (number of adverse events),[1]; 20 mg (S)-ketamine IV,1
same,Total (number of adverse events),[1]; 20 mg (S)-ketamine IV,17
same,Whistling noise in the ear (number of adverse events),[1]; 20 mg (S)-ketamine IV,1
same,Blurred vision (number of adverse events),[1]; 50 mg (S)-ketamine as OTF,1
same,Bradykinesia (number of adverse events),[1]; 50 mg (S)-ketamine as OTF,1
same,Dizziness (number of adverse events),[1]; 50 mg (S)-ketamine as OTF,1
same,Feeling of drunkenness (number of adverse events),[1]; 50 mg (S)-ketamine as OTF,2
same,Headache (number of adverse events),[1]; 50 mg (S)-ketamine as OTF,1
same,Nausea (number of adverse events),[1]; 50 mg (S)-ketamine as OTF,1
same,Total (number of adverse events),[1]; 50 mg (S)-ketamine as OTF,7
same,Bradykinesia (number of adverse events),[1]; 100 mg (S)-ketamine as OTF,1
same,Dizziness (number of adverse events),[1]; 100 mg (S)-ketamine as OTF,3
same,Headache (number of adverse events),[1]; 100 mg (S)-ketamine as OTF,2
same,Nausea (number of adverse events),[1]; 100 mg (S)-ketamine as OTF,1
same,Numbness of the tongue (number of adverse events),[1]; 100 mg (S)-ketamine as OTF,2
same,Total (number of adverse events),[1]; 100 mg (S)-ketamine as OTF,9
N[C@]1(c2ccccc2Cl)CCC[C@H](O)C1=O [(S)-Hydroxynorketamine],Tmax,[2]; 50 mg (S)-Ketamine OTF,81 min
same,Tmax,[2]; 100 mg (S)-Ketamine OTF,109 min
same,Cmax plasma concentration,"[2]; All data, 50 mg (S)-ketamine OTF (formulation 15)",94 ng/mL
same,Cmax plasma concentration,"[2]; Buccally, 50 mg (S)-ketamine OTF, n=5",81 ng/mL
same,plasma level of the metabolite following administration of an OTF as compared to intravenous administration of 20 mg (S)-ketamine,[2],higher
same,Cmax plasma concentration,"[2]; Sublingually, 50 mg (S)-ketamine OTF, n=15",98 ng/mL
N[C@]1(c2ccccc2Cl)CCCCC1=O [(S)-Norketamine],Tmax,[2]; 50 mg (S)-Ketamine OTF,61 min
same,Tmax,[2]; 100 mg (S)-Ketamine OTF,78 min
same,Cmax plasma concentration,"[2]; All data, 2 × 50 mg (S)-ketamine OTF (formulation 15)",330 ng/mL
same,Cmax plasma concentration,"[2]; Buccally, 2 × 50 mg (S)-ketamine OTF, n=5",450 ng/mL
same,plasma level of the metabolite following administration of an OTF as compared to intravenous administration of 20 mg (S)-ketamine,[2],higher
CNC1(c2ccccc2Cl)CCCCC1=O (stereo not shown) [ketamine],"plasma levels of ketamine, intravenous administration versus administration of an OTF",[2]; FIGS. 9-11,higher for intravenous administration
